Tests used:
[1] = test system: human CD45+ADAR1-GFP+ cells and CD45+CD3+ADAR1-GFP+ cells; assay: aNBM SAK378 PDX mice, flow cytometry; type: in vivo, human cells in NSG-SGM3 mice; conditions: 10 mg/kg, IV, BIW×2
Description: Aged normal bone marrow (aNBM) PDX mouse models SAK378 were established with 80-100K ADAR1-reporter transduced CD34+ cells by IV injection into NSG-SGM3 mice at the age of 5-6 weeks. When the models were ready, the mice were treated with either vehicle or rebecsinib (10 mg/kg, IV, BIW×2). The mice were sacrificed upon completion of the dosing plan, and single cells from PB, SP, and BM were collected and stained with mAbs for CD45, CD3, CD14, and CD19.

[2] = test system: human CD34+ cells; assay: Aged normal bone marrow CD34+ engrafted NSG-SGM3 mice, flow cytometry of PB, SP, BM; type: in vivo, human cells in NSG-SGM3 mice; conditions: 10 mg/kg, intravenously, twice a week for 2 weeks
From the text: Here, we established humanized mouse models using CD34^+ stem cells isolated from the peripheral blood of adult secondary AML (sAML) patients or bone marrow of normal-aged donors (63-79 years old).
FIG. 1: Rebecsinib treatment promotes human CD34^+ cells and spares CD45^+ cells Aged normal bone marrow (BM) samples were provided by Scripps Clinic La Jolla, CA. Normal human CD34^+ cells were freshly isolated with Microbeads (Miltenyi Biotech) and subsequently transduced with the ADAR1-NanoLuc reporter for 48 hours. Adult NSG-SGM3 mice (4-6 weeks) were intravenously transplanted with 100K ADAR1-NanoLuc reporter transduced CD34^+ cells. The mice were screened using the IVIS 200 imaging system and staining of peripheral blood with human CD45 monoclonal antibody. Mice with human CD45^+ cells >1% were included in the treatment cohort receiving Rebecsinib at a dose of 10 mg/kg, intravenously, twice a week for 2 weeks, with a total of 5 doses. After treatment, mice were sacrificed, and single cells were obtained from peripheral blood (PB), bone marrow (BM), and spleen (SP) for further analysis. A. IVIS 200 images of NSG-SGM3 mice intravenously transplanted with ADAR1-NanoLuc reporter transduced normal human CD34^+ cells at 18 weeks after transplantation. B. Flow cytometry gating strategies showing positive and negative controls. C.

[3] = Multi-species (rat, rabbit, NHP) pre-IND studies; type: in vivo
Description: […] Rat and rabbit studies included toxicology analyses, quantification of plasma levels of Rebecsinib, and necropsies to evaluate organ integrity after treatment. For NHP studies, health and ophthalmological evaluations were performed before and after dosing with Rebecsinib, and blood samples were collected for quantification of plasma levels of Rebecsinib and biomarker studies in PBMCs from treated and control animals. All monkeys were returned to the animal colony after the end of the observation period. Toxicokinetic values including mean plasma concentrations and t1/2 values were calculated according to CRO-approved protocols (Charles River and BASi).

[4] = test system: normal HSPCs; assay: Normal cord blood HSPC engrafted mice; type: in vivo, human cells in Rag2-/-γc-/- mice
Description: To determine the sensitivity of normal HSPCs to Rebecsinib, human cord blood-derived CD34+ cells were transplanted into Rag2^−/−γc^−/− mice. After human cell engraftment was established (6 to 12 weeks), mice were treated with Rebecsinib twice-weekly for two weeks at doses equivalent to the maximum doses selected for in vivo LSC assays. The frequency of CD45^+ hematopoietic cells in bone marrow, peripheral blood, spleen, and thymus were unchanged between vehicle and Rebecsinib-treated groups that received a dose of 10 mg/kg. […] Thus, a dose of 10 mg/kg in mice is sufficient to reduce in vivo sAML LSC burden while sparing normal HSPC development.
In humanized mouse models, sAML cells (CD34^+) from two unique […] patient samples that were splicing factor mutated or unmutated were utilized, including sAML50261 and sAML2008-5.^14 For in vivo efficacy and therapeutic index studies, sAML CD34^+ cells, or normal human cord blood-derived or aged bone marrow-derived HSPCs (CD34^+), were transplanted (50,000-200,000 cells per mouse) intrahepatically into neonatal Rag2^−/−γc^−/− mice, or intravenously into adult NSG-SGM3 mice (Jackson Laboratories, Bar Harbor, ME). A subset of experiments was performed with normal aged bone marrow cells that were transduced with the lentiviral ADAR1 nanoluc-GFP reporter vector prior to transplant. For transplantation into adult mice, animals were irradiated with ^137Cs at a dose of 150 cGy 24 hr before IV transplantation. After engraftment levels reached >1% human CD45^+ hematopoietic cells in the peripheral blood, animals were distributed among treatment groups for treatment with Rebecsinib or vehicle control essentially as previously described, with an increased dosing regimen of twice weekly (versus once weekly in prior studies)^14 and an optimized in vivo formulation (2% w/w EtOH, 5% w/v KOLLIPHOR HS™ 15 in 0.9% saline). For animals that received transplants of cells transduced with the lentiviral ADAR1 nanoluc-GFP reporter, mice were imaged 15 weeks after transplant on the IVIS 200, as previously described.^79 Following treatment with Rebecsinib (five intravenous doses total over a two-week period), hematopoietic tissues (peripheral blood, bone marrow, spleens) were collected and analyzed by flow cytometry as previously described.^14 For splice isoform-specific qRT-PCR or RNA-seq analyses on cells from in vivo studies, human CD34^+ LSC from bone marrows and spleens of engrafted mice were isolated by magnetic bead separation (Miltenyi Biotec).

[5] = test system: MDA-MB-231 cells; assay: IVIS total flux in MDA-MB-231 transplanted mice; type: in vivo, human cells in Rag2 neonatal mice; conditions: 0 day after completing the dosing plan; compared to vehicle control
From the text: FIG. 5 graphically illustrates IVIS (In Vivo Imaging System) results of ADAR1-MDA-MB-231 transplanted Rag2 mouse models, and IVIS images were taken at 6 weeks after transplant (FIG. 5A), after two weeks of therapy (FIG. 5B), and one week after therapy was completed (FIG. 5C), as discussed in further detail in Example 5, below.
Ten thousand (10k) MDA-MB-231 cells were intrahepatically transplanted into Rag2 neonatal mice, then treated with fedratinib, rebecsinib, or a combination of fedratinib and rebecsinib. IVIS images were taken at 6 weeks after transplant (FIG. 5A), after two weeks of therapy (FIG. 5B), and one week after therapy was completed (FIG. 5C). The IVIS signals from the mice were graphed by groups.
The IVIS images of these mice were taken at 0 day after completing the dosing plan and are graphed by their total flux.

Compound: CC[C@H](OC)[C@@H](C)[C@H]1O[C@@H]1[C@@H](O)[C@H](C)/C=C/C=C(\C)[C@H]1OC(=O)C[C@H](O)CC[C@@](C)(O)[C@@H](OC(C)=O)/C=C/[C@@H]1C [Rebecsinib]
- CD45+CD3+GFP+ cells in PB, SP, and BM [1]: spares the cell populations
- CD45+GFP+ cells in PB, SP, and BM [1]: spares the cell populations
- human CD45+ cells and differentiated cells (CD14+, CD3+, CD19+) [2]: preserves human CD45^+ cells and differentiated cells, including CD14^+ myeloid cells, and lymphoid cells such as CD3^+ T and CD19^+ B cells
- human CD34+ cells in BM ([2]; bone marrow, p=0.046, Student's t-test): significant CD34^+ increase
- human CD34+ cells in PB ([2]; peripheral blood): increased levels of human CD34^+ cells
- human CD34+ cells in SP ([2]; spleen): increased levels of human CD34^+ cells
- systemic toxicity [3]: no evidence of systemic toxicity
- bioavailability and stability ([3]; clinically tractable formulation): favorable bioavailability and stability
- tolerability in rat, rabbit, NHP ([3]; pre-IND studies): well tolerated
- splicing modulation ([3]; rat, rabbit, NHP): dose-dependent increases in splicing modulation
- frequency of CD45+ hematopoietic cells in bone marrow, peripheral blood, spleen, and thymus ([4]; 10 mg/kg, twice-weekly for two weeks): unchanged
- human CD19+ cells in peripheral blood ([4]; 20 mg/kg): reduction
- human CD45+ and CD19+ cells in bone marrow or spleen ([4]; 20 mg/kg): not in the bone marrow or spleen
- human CD45+ cells in peripheral blood ([4]; 20 mg/kg): reduction
- systemic toxicity ([4]; 2 weeks of dosing at 10 or 20 mg/kg): no evidence of Rebecsinib-related systemic toxicity
- CD19+ B cells in bone marrow, peripheral blood, or spleen ([4]; vs vehicle): no significant reduction
- human CD3+ T cells in thymus or peripheral blood ([4]; vs vehicle): no significant reduction
- total flux (IVIS) [5]: significantly decreased

Reference: US20260364072A1, “METHODS FOR PROMOTING EXPANSION OF HUMAN CD34+ CELLS IN VIVO AND FOR PROMOTING NEURAL REGENERATION” (THE REGENTS OF THE UNIVERSITY OF CALIFORNIA, priority 2023, published 2026)
